{"source": "the supplement of paper PMC10307832", "assay_in_all_cases": "relative viability (nuclei count vs DMSO), 5 days (fraction); higher = more cells survive", "key": {"HARA": {"system": "HARA", "in_short": "(§1)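 Lung cancer cell lines in 1536-well plates were dosed by pin tool the day after seeding, either with one drug alone or with a fixed anchor-drug dose plus five library-drug doses (not always all listed) in √10 steps. After 5 days, cells were fixed and their nuclei stained in one step (final 0.05% Triton X-100, 1% formaldehyde, 1 ug/ml Hoechst), then counted on 4× images. Relative viability is the nuclei count in treated wells divided by that in vehicle wells. Values are medians of duplicate plates.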"}, "NCI-H647": {"system": "NCI-H647", "in_short": "as §1"}, "SW 900": {"system": "SW 900", "in_short": "as §1"}, "A-427": {"system": "A-427", "in_short": "as §1"}, "NCI-H1993": {"system": "NCI-H1993", "in_short": "as §1"}, "EPLC-272H": {"system": "EPLC-272H", "in_short": "as §1"}, "NCI-H1734": {"system": "NCI-H1734", "in_short": "as §1"}, "NCI-H358": {"system": "NCI-H358", "in_short": "as §1"}, "NCI-H522": {"system": "NCI-H522", "in_short": "as §1"}, "LK-2": {"system": "LK-2", "in_short": "as §1"}, "RERF-LC-KJ": {"system": "RERF-LC-KJ", "in_short": "as §1"}, "NCI-H2405": {"system": "NCI-H2405", "in_short": "as §1"}, "NCI-H460": {"system": "NCI-H460", "in_short": "as §1"}, "NCI-H1755": {"system": "NCI-H1755", "in_short": "as §1"}, "EMC-BAC-2": {"system": "EMC-BAC-2", "in_short": "as §1"}, "NCI-H1650": {"system": "NCI-H1650", "in_short": "as §1"}, "COR-L 105": {"system": "COR-L 105", "in_short": "as §1"}, "HCC-44": {"system": "HCC-44", "in_short": "as §1"}, "NCI-H596": {"system": "NCI-H596", "in_short": "as §1"}, "LU99A": {"system": "LU99A", "in_short": "as §1"}, "EKVX": {"system": "EKVX", "in_short": "as §1"}, "ChaGo-K-1": {"system": "ChaGo-K-1", "in_short": "as §1"}}, "data": [{"compound": "CN1CCN(CCOc2cc(OC3CCOCC3)c3c(Nc4c(Cl)ccc5c4OCO5)ncnc3c2)CC1", "note": "[Saracatinib] + Cc1cc(Nc2cc(N3CCN(C)CC3)nc(Sc3ccc(NC(=O)C4CC4)cc3)n2)n[nH]1 [Tozasertib] (partner 0.1 µM)", "values": [{"measurement": "relative viability", "setting": "HARA; first compound 0.02 µM", "value": 0.118}, {"measurement": "relative viability", "setting": "HARA; first compound 0.2 µM", "value": 0.0998}, {"measurement": "relative viability", "setting": "HARA; first compound 0.6325 µM", "value": 0.0847}, {"measurement": "relative viability", "setting": "HARA; first compound 2 µM", "value": 0.0726}, {"measurement": "relative viability", "setting": "NCI-H647; first compound 0.02 µM", "value": 0.257}, {"measurement": "relative viability", "setting": "NCI-H647; first compound 0.2 µM", "value": 0.293}, {"measurement": "relative viability", "setting": "NCI-H647; first compound 0.6325 µM", "value": 0.275}, {"measurement": "relative viability", "setting": "NCI-H647; first compound 2 µM", "value": 0.231}, {"measurement": "relative viability", "setting": "SW 900; first compound 0.02 µM", "value": 0.546}, {"measurement": "relative viability", "setting": "SW 900; first compound 0.2 µM", "value": 0.533}, {"measurement": "relative viability", "setting": "SW 900; first compound 0.6325 µM", "value": 0.645}, {"measurement": "relative viability", "setting": "SW 900; first compound 2 µM", "value": 0.532}, {"measurement": "relative viability", "setting": "A-427; first compound 0.02 µM", "value": 0.215}, {"measurement": "relative viability", "setting": "A-427; first compound 0.2 µM", "value": 0.18}, {"measurement": "relative viability", "setting": "A-427; first compound 0.6325 µM", "value": 0.207}, {"measurement": "relative viability", "setting": "A-427; first compound 2 µM", "value": 0.206}, {"measurement": "relative viability", "setting": "NCI-H1993; first compound 0.02 µM", "value": 0.6}, {"measurement": "relative viability", "setting": "NCI-H1993; first compound 0.2 µM", "value": 0.559}, {"measurement": "relative viability", "setting": "NCI-H1993; first compound 0.6325 µM", "value": 0.569}, {"measurement": "relative viability", "setting": "NCI-H1993; first compound 2 µM", "value": 0.576}, {"measurement": "relative viability", "setting": "EPLC-272H; first compound 0.02 µM", "value": 0.278}, {"measurement": "relative viability", "setting": "EPLC-272H; first compound 0.2 µM", "value": 0.34}, {"measurement": "relative viability", "setting": "EPLC-272H; first compound 0.6325 µM", "value": 0.179}, {"measurement": "relative viability", "setting": "EPLC-272H; first compound 2 µM", "value": 0.157}, {"measurement": "relative viability", "setting": "NCI-H1734; first compound 0.02 µM", "value": 0.305}, {"measurement": "relative viability", "setting": "NCI-H1734; first compound 0.6325 µM", "value": 0.261}, {"measurement": "relative viability", "setting": "NCI-H1734; first compound 2 µM", "value": 0.24}, {"measurement": "relative viability", "setting": "NCI-H358; first compound 0.02 µM", "value": 0.118}, {"measurement": "relative viability", "setting": "NCI-H358; first compound 0.2 µM", "value": 0.0883}, {"measurement": "relative viability", "setting": "NCI-H358; first compound 0.6325 µM", "value": 0.0859}, {"measurement": "relative viability", "setting": "NCI-H358; first compound 2 µM", "value": 0.0757}, {"measurement": "relative viability", "setting": "NCI-H522; first compound 0.02 µM", "value": 0.557}, {"measurement": "relative viability", "setting": "NCI-H522; first compound 0.6325 µM", "value": 0.534}, {"measurement": "relative viability", "setting": "NCI-H522; first compound 2 µM", "value": 0.458}, {"measurement": "relative viability", "setting": "LK-2; first compound 0.02 µM", "value": 0.205}, {"measurement": "relative viability", "setting": "LK-2; first compound 0.2 µM", "value": 0.188}, {"measurement": "relative viability", "setting": "LK-2; first compound 0.6325 µM", "value": 0.204}, {"measurement": "relative viability", "setting": "LK-2; first compound 2 µM", "value": 0.193}, {"measurement": "relative viability", "setting": "RERF-LC-KJ; first compound 0.02 µM", "value": 0.52}, {"measurement": "relative viability", "setting": "RERF-LC-KJ; first compound 0.2 µM", "value": 0.465}, {"measurement": "relative viability", "setting": "RERF-LC-KJ; first compound 0.6325 µM", "value": 0.497}, {"measurement": "relative viability", "setting": "RERF-LC-KJ; first compound 2 µM", "value": 0.363}, {"measurement": "relative viability", "setting": "NCI-H2405; first compound 0.02 µM", "value": 0.778}, {"measurement": "relative viability", "setting": "NCI-H2405; first compound 0.2 µM", "value": 0.661}, {"measurement": "relative viability", "setting": "NCI-H2405; first compound 0.6325 µM", "value": 0.706}, {"measurement": "relative viability", "setting": "NCI-H2405; first compound 2 µM", "value": 0.521}, {"measurement": "relative viability", "setting": "NCI-H460; first compound 0.02 µM", "value": 0.407}, {"measurement": "relative viability", "setting": "NCI-H460; first compound 0.2 µM", "value": 0.397}, {"measurement": "relative viability", "setting": "NCI-H460; first compound 0.6325 µM", "value": 0.433}, {"measurement": "relative viability", "setting": "NCI-H460; first compound 2 µM", "value": 0.279}, {"measurement": "relative viability", "setting": "NCI-H1755; first compound 0.02 µM", "value": 0.526}, {"measurement": "relative viability", "setting": "NCI-H1755; first compound 0.2 µM", "value": 0.528}, {"measurement": "relative viability", "setting": "NCI-H1755; first compound 0.6325 µM", "value": 0.644}, {"measurement": "relative viability", "setting": "NCI-H1755; first compound 2 µM", "value": 0.459}, {"measurement": "relative viability", "setting": "EMC-BAC-2; first compound 0.02 µM", "value": 0.265}, {"measurement": "relative viability", "setting": "EMC-BAC-2; first compound 0.2 µM", "value": 0.256}, {"measurement": "relative viability", "setting": "EMC-BAC-2; first compound 0.6325 µM", "value": 0.286}, {"measurement": "relative viability", "setting": "EMC-BAC-2; first compound 2 µM", "value": 0.271}, {"measurement": "relative viability", "setting": "NCI-H1650; first compound 0.02 µM", "value": 0.435}, {"measurement": "relative viability", "setting": "NCI-H1650; first compound 0.2 µM", "value": 0.294}, {"measurement": "relative viability", "setting": "NCI-H1650; first compound 0.6325 µM", "value": 0.22}, {"measurement": "relative viability", "setting": "NCI-H1650; first compound 2 µM", "value": 0.204}, {"measurement": "relative viability", "setting": "COR-L 105; first compound 0.02 µM", "value": 0.358}, {"measurement": "relative viability", "setting": "COR-L 105; first compound 0.2 µM", "value": 0.323}, {"measurement": "relative viability", "setting": "COR-L 105; first compound 0.6325 µM", "value": 0.309}, {"measurement": "relative viability", "setting": "COR-L 105; first compound 2 µM", "value": 0.282}, {"measurement": "relative viability", "setting": "HCC-44; first compound 0.02 µM", "value": 0.967}, {"measurement": "relative viability", "setting": "HCC-44; first compound 0.2 µM", "value": 0.891}, {"measurement": "relative viability", "setting": "HCC-44; first compound 0.6325 µM", "value": 1.48}, {"measurement": "relative viability", "setting": "HCC-44; first compound 2 µM", "value": 1.05}, {"measurement": "relative viability", "setting": "NCI-H596; first compound 0.02 µM", "value": 0.8}, {"measurement": "relative viability", "setting": "NCI-H596; first compound 0.2 µM", "value": 0.847}, {"measurement": "relative viability", "setting": "NCI-H596; first compound 0.6325 µM", "value": 1.07}, {"measurement": "relative viability", "setting": "NCI-H596; first compound 2 µM", "value": 0.708}, {"measurement": "relative viability", "setting": "LU99A; first compound 0.02 µM", "value": 0.26}, {"measurement": "relative viability", "setting": "LU99A; first compound 0.2 µM", "value": 0.249}, {"measurement": "relative viability", "setting": "LU99A; first compound 0.6325 µM", "value": 0.226}, {"measurement": "relative viability", "setting": "LU99A; first compound 2 µM", "value": 0.217}, {"measurement": "relative viability", "setting": "EKVX; first compound 0.02 µM", "value": 0.357}, {"measurement": "relative viability", "setting": "EKVX; first compound 0.6325 µM", "value": 0.366}, {"measurement": "relative viability", "setting": "EKVX; first compound 2 µM", "value": 0.254}, {"measurement": "relative viability", "setting": "ChaGo-K-1; first compound 0.02 µM", "value": 0.24}, {"measurement": "relative viability", "setting": "ChaGo-K-1; first compound 0.2 µM", "value": 0.233}, {"measurement": "relative viability", "setting": "ChaGo-K-1; first compound 0.6325 µM", "value": 0.218}, {"measurement": "relative viability", "setting": "ChaGo-K-1; first compound 2 µM", "value": 0.198}]}]}
